Measurements reported in patent publication US8637542B2, “Kinase inhibitors and methods of use” (Intellikine, Inc., priority 2008, dated 2014).

Key:
Type in all cases: biochemical
PI3K β = molecular target: T1, PI3K β (Homo sapiens, UniProt P42338); test: In-vitro PI3K β inhibition assay
T1 construct: purchased Upstate
Experimental: (§1) Class I PI3-Ks can be either purchased (p110α/p85α, p110β/p85α, p110β/p85α from Upstate, and p110γ from Sigma) or expressed as previously described (Knight et al., 2004). IC50 values are measured using either a standard TLC assay for lipid kinase activity (described below) or a high-throughput membrane capture assay. Kinase reactions are performed by preparing a reaction mixture containing kinase, inhibitor (2% DMSO final concentration), buffer (25 mM HEPES, pH 7.4, 10 mM MgCl2), and freshly sonicated phosphatidylinositol ([…]). Reactions are initiated by the addition of ATP containing 10 μCi of γ-32P-ATP to a final concentration 10 or 100 μM and allowed to proceed for 5 minutes at room temperature. For TLC analysis, reactions are then terminated by the addition of 105 μl 1N HCl followed by 160 μl CHCl3:MeOH (1:1). […] The TLC plates are then dried, exposed to a phosphorimager screen (Storm, Amersham), and quantitated. For each compound, kinase activity is measured at 10-12 inhibitor concentrations representing two-fold dilutions from the highest concentration tested (typically, 200 μM).
(§2) Other commercial kits or systems for assaying PI3-K activities are available. […] The plate is sealed, incubated for 1 hour at room temperature, and then read on an appropriate plate reader. Data is analyzed and IC50s are generated using GraphPad Prism 5.

PI3K α = molecular target: T2, PI3K α (Homo sapiens, UniProt P42336); test: In-vitro PI3K α inhibition assay
T2 construct: purchased Upstate
Experimental: Class I PI3-Ks can be either purchased (p110α/p85α, p110β/p85α, p110β/p85α from Upstate, and p110γ from Sigma) or expressed as previously described (Knight et al., 2004). IC50 values are measured using either a standard TLC assay for lipid kinase activity (described below) or a high-throughput membrane capture assay. Kinase reactions are performed by preparing a reaction mixture containing kinase, inhibitor (2% DMSO final concentration), buffer (25 mM HEPES, pH 7.4, 10 mM MgCl2), and freshly sonicated phosphatidylinositol ([…]). Reactions are initiated by the addition of ATP containing 10 μCi of γ-32P-ATP to a final concentration 10 or 100 μM and allowed to proceed for 5 minutes at room temperature. For TLC analysis, reactions are then terminated by the addition of 105 μl 1N HCl followed by 160 μl CHCl3:MeOH (1:1). The biphasic mixture is vortexed, briefly centrifuged, and the organic phase is transferred to a new tube using a gel loading pipette tip precoated with CHCl3. This extract is spotted on TLC plates and developed for 3-4 hours in a 65:35 solution of n-propanol:1M acetic acid. The TLC plates are then dried, exposed to a phosphorimager screen (Storm, Amersham), and quantitated. For each compound, kinase activity is measured at 10-12 inhibitor concentrations representing two-fold dilutions from the highest concentration tested (typically, 200 μM).
Other commercial kits or systems for assaying PI3-K activities are available. The commercially available kits or systems can be used to screen for inhibitors and/or agonists of PI3-Ks including but not limited to PI3-Kinase α, β, δ, and γ. An exemplary system is PI3-Kinase (human) HTRF™ Assay from Upstate. […] Briefly, the assay is a time resolved FRET assay that indirectly measures PI3 product formed by the activity of a PI3-K. The kinase reaction is performed in a microtitre plate (e.g., a 384 well microtitre plate). […] The plate is sealed, incubated for 1 hour at room temperature, and then read on an appropriate plate reader. Data is analyzed and IC50s are generated using GraphPad Prism 5.

mTORC = molecular target: T3, mTORC (Homo sapiens, UniProt P42345); test: In-vitro mTORC inhibition assay
T3 construct: purchased Invitrogen
Experimental: The compounds described herein can be tested against recombinant mTOR (Invitrogen) in an assay containing 50 mM HEPES, pH 7.5, 1 mM EGTA, 10 mM MgCl2, 2.5 mM, 0.01% Tween, 10 μM ATP (2.5 μCi of […]), and 3 μg/mL BSA. Rat recombinant PHAS-1/4EBP1 (Calbiochem; 2 mg/mL) is used as a substrate. Reactions are terminated by spotting onto nitrocellulose, which is washed with 1M NaCl/1% phosphoric acid (approximately 6 times, 5-10 minutes each). Sheets are dried and the transferred radioactivity quantitated by phosphorimaging.
Other kits or systems for assaying mTOR activity are commercially available. For instance, one can use Invitrogen's LanthaScreen™ Kinase assay to test the inhibitors of mTOR disclosed herein. This assay is a time resolved FRET platform that measures the phosphorylation of GFP labeled 4EBP1 by mTOR kinase. The kinase reaction is performed in a white 384 well microtitre plate. The total reaction volume is 20 ul per well and the reaction buffer composition is 50 mM HEPES pH7.5, 0.01% Polysorbate 20, 1 mM EGTA, 10 mM MnCl2, and 2 mM DTT. In the first step, each well receives 2 ul of test compound in 20% dimethylsulphoxide resulting in a 2% DMSO final concentration. Next, 8 ul of mTOR diluted in reaction buffer is added per well for a 60 ng/ml final concentration. To start the reaction, 10 ul of an ATP/GFP-4EBP1 mixture (diluted in reaction buffer) is added per well for a final concentration of 10 uM ATP and 0.5 uM GFP-4EBP1. The plate is sealed and incubated for 1 hour at room temperature. The reaction is stopped by adding 10 ul per well of a Tb-anti-pT46 4EBP1 antibody/EDTA mixture (diluted in TR-FRET buffer) for a final concentration of 1.3 nM antibody and 6.7 mM EDTA. The plate is sealed, incubated for 1 hour at room temperature, and then read on a plate reader set up for LanthaScreen™ TR-FRET. Data is analyzed and IC50s are generated using GraphPad Prism 5.

PI3K δ = molecular target: T4, PI3K δ (Homo sapiens, UniProt O00329); test: In-vitro PI3K δ inhibition assay
T4 construct: purchased Upstate
Experimental: as §1, §2

T2 sequence (P42336 whole entry): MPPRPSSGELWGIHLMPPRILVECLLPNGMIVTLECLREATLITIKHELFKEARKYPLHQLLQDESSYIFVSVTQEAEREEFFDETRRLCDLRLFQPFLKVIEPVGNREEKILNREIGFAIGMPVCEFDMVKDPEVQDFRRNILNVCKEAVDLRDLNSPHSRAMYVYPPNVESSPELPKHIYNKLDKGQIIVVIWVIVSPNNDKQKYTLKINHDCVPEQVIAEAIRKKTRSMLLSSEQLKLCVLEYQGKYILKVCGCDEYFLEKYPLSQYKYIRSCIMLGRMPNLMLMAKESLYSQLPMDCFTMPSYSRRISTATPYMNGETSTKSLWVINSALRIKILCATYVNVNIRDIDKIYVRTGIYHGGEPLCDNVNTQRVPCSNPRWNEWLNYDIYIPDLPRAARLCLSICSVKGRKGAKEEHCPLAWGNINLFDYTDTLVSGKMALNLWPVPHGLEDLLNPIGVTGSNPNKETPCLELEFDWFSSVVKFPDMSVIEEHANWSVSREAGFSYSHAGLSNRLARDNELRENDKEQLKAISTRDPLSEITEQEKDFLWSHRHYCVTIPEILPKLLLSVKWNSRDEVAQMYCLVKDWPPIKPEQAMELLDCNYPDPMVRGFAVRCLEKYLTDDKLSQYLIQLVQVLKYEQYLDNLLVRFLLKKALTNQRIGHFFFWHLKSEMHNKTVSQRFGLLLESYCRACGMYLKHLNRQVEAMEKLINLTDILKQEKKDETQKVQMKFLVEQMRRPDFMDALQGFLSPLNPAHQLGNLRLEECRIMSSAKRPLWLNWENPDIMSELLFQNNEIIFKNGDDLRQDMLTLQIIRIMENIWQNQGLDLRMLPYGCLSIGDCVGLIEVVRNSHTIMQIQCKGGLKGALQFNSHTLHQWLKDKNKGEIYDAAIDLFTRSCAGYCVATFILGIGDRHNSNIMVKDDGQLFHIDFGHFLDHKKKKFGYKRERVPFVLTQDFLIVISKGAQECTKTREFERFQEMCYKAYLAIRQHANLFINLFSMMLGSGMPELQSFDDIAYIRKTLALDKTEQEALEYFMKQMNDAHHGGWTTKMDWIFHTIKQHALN
T2 sequence (P27986 whole entry partner): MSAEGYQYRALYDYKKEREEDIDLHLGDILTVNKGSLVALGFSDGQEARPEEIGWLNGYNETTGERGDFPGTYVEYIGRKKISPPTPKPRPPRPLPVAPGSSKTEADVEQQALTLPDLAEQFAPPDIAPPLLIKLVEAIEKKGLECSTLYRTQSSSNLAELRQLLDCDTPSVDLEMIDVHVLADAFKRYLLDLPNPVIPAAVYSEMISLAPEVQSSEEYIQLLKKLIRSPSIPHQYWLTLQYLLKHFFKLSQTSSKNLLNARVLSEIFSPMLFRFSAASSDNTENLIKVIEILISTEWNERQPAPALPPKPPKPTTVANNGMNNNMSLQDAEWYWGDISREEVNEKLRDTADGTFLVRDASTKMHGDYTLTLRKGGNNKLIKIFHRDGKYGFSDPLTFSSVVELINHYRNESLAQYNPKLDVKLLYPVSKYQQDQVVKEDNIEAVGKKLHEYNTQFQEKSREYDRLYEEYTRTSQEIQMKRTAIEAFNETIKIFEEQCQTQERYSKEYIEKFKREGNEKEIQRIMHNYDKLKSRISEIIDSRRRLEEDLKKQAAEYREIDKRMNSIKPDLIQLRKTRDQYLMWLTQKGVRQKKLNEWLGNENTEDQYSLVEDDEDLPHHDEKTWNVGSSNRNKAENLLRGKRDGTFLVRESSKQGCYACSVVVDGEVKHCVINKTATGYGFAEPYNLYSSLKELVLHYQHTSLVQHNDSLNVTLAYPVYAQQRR
T3 sequence (P42345 1360-2549 limits assumed): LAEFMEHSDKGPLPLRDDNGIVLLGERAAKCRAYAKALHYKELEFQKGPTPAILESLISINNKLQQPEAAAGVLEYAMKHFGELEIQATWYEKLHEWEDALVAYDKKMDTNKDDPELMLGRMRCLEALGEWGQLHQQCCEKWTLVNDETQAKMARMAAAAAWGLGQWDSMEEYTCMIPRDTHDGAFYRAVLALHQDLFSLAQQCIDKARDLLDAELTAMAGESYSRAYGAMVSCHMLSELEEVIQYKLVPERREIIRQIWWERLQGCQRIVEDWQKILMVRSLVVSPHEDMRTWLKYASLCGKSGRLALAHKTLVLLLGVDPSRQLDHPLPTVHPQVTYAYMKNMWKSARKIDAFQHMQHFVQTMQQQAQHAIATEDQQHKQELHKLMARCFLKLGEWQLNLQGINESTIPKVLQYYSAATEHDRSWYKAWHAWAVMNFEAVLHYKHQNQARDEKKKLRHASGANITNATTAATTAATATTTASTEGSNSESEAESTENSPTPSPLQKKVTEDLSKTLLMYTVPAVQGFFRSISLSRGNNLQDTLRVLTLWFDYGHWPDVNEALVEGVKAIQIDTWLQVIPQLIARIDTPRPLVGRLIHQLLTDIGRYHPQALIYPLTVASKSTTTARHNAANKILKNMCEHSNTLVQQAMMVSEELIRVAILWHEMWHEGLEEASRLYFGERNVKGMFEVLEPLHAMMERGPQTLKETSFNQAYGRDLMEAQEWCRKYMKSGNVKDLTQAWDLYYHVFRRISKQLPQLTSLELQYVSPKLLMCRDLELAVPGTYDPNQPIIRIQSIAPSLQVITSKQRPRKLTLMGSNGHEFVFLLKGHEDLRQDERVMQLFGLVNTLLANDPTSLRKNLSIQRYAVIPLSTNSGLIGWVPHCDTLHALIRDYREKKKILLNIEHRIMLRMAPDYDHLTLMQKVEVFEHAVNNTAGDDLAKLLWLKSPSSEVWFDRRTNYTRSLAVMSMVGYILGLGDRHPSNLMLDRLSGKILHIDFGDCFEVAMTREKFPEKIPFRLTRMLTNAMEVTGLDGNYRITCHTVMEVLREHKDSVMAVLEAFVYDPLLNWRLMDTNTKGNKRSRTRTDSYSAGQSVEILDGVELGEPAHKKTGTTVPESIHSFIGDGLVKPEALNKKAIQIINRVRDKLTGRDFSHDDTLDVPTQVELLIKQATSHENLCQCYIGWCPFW
T1 sequence (P42338 whole entry): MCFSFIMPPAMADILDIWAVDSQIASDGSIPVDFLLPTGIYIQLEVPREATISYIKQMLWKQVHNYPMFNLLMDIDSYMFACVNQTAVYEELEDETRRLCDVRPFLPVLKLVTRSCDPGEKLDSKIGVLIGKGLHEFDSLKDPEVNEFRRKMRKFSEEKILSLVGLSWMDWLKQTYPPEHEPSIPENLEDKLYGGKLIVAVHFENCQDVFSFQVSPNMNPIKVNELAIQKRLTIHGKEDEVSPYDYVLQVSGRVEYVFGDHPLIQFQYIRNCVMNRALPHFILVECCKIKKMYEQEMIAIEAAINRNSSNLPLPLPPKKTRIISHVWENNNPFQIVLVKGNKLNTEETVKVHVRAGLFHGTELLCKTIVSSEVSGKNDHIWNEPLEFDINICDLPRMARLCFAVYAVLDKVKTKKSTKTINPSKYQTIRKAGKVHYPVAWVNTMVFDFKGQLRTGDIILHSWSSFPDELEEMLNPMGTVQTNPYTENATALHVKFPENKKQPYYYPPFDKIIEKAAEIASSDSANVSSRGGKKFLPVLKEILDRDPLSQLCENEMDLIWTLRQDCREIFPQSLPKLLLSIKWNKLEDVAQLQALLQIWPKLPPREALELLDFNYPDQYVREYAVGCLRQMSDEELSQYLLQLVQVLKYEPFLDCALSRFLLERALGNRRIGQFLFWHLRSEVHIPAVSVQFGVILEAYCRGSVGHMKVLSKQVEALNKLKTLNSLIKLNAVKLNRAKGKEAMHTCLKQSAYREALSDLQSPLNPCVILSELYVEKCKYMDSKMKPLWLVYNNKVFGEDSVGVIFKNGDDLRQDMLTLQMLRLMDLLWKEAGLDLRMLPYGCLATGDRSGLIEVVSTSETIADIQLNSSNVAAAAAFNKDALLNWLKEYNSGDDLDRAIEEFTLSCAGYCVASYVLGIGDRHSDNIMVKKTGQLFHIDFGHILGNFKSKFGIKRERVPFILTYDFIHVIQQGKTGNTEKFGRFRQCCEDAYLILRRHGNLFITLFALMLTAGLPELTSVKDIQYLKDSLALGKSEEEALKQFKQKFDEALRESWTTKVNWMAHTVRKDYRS
T1 sequence (P27986 whole entry partner): as the sequence (P27986 whole entry partner) above

SMILES	IC50 (PI3K β)	IC50 (PI3K α)	IC50 (mTORC)	IC50 (PI3K δ)
CC(C)n1nc(-c2ccc3oc(N)nc3c2)c2c(N)nccc21 [Compound 4]	> 1 µM	> 1 µM	≤ 1 µM	
CC(C)n1nc(-c2cc3cc(O)ccc3[nH]2)c2c(N)nccc21 [Compound 1]			≤ 1 µM	
CC(C)n1nc(-c2cnc3[nH]ccc3c2)c2c(N)nccc21 [Compound 3]	> 1 µM	> 1 µM	> 1 µM	> 1 µM
CC(C)n1nc(-c2ccc3onc(N)c3c2)c2c(N)nccc21 [Compound 2]		> 1 µM	> 1 µM	
